# “And” between values parts separate entries of the source, which are not always exact repeats. Equal entries are not always repeated.
# Biological target: 5-hydroxytryptamine receptor 4 (Homo sapiens, UniProt Q13639)
# Sequence (Q13639 whole entry): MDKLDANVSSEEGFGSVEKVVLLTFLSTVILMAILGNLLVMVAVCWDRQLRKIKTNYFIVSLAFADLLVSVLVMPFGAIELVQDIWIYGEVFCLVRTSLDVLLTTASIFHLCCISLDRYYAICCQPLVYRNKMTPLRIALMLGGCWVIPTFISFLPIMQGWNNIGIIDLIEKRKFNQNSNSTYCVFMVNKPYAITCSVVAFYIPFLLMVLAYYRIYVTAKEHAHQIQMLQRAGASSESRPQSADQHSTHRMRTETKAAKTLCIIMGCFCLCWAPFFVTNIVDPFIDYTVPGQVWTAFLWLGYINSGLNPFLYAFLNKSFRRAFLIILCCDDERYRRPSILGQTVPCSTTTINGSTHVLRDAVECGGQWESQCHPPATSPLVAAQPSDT
row,Structure (SMILES),Ki
1,CCn1c(=O)n(C(=O)NC2CC3CCC(C2)N3C)c2ccccc21 (stereo not drawn) [BIMU 1],373 nM and 123 nM and 66 nM and 38.8 nM
2,Cn1cc(C(=O)OCC2CCN(CCNS(C)(=O)=O)CC2)c2ccccc21 [GR 113808],0.07 nM
3,"COc1cc(N)c(Cl)cc1C(=O)NC1CN2CCC1CC2 (stereo not drawn) [ZACOPRIDE,R]",> 10000 nM
